The record followed here is publication doi:10.1101/2025.06.19.660642, “Discovery of orally bioavailable Zika and West Nile Virus antiviral compounds targeting the NS2B-NS3 protease” (bioRxiv, 2025).

SMILES strings stand for the structures. Like-named read-outs stand apart in the source and are kept apart here.

This test deals with T1, ZIKV NS2B-NS3 protease (Zika virus, UniProt A0A024B7W1).
T1 construct: directed at the co-expressed ZIKV NS2B-NS3 protease
Nature of the test: ZIKV NS2B-NS3 protease biochemical FRET assay. Conditions: library 1, supplement.

In general, Ki refers to a dissociation constant, usually derived from enzyme kinetics or from competition with a known ligand.

T1 sequence (A0A024B7W1 1503-1680): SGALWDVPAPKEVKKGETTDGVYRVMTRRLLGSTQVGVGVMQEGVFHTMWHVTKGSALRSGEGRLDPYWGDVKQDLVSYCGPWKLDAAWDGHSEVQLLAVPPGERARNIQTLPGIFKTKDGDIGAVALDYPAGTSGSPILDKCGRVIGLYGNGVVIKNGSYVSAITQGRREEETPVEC
T1 sequence (A0A024B7W1 1425-1464): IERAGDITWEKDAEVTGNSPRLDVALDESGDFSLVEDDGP

`NCCCc1ccc(F)c(NC(=O)c2cc(Cl)cc(NC(=O)OCc3ccccc3)c2)c1` [ASAP-0021296, NCCCc1ccc(F)c(NC(=O)c2cc(Cl)cc(NC(=O)OCc3ccccc3)c2)c1] showed a Ki (ZIKV NS2B-NS3 Ki (uM)) of 5.63 µM.

With `Cn1nc2c(c1NC(=O)c1cc(Cl)cc(NC(=O)OCc3ccccc3)c1)CCNC2` [ASAP-0021390, Cn1nc2c(c1NC(=O)c1cc(Cl)cc(NC(=O)OCc3ccccc3)c1)CCNC2], the Ki (ZIKV NS2B-NS3 Ki (uM)) is above 89.3 µM.

As for `O=C(Nc1cc(Cl)cc(C(=O)NC[C@@H]2CCNC3(CC3)C2)c1)OCc1ccccc1` [ASAP-0021400, O=C(Nc1cc(Cl)cc(C(=O)NC[C@@H]2CCNC3(CC3)C2)c1)OCc1ccccc1 ¦&1:13¦], the “ZIKV NS2B-NS3 pKi” value was below 4.05. Further, the Ki (read-out: ZIKV NS2B-NS3 Ki) is above 89.3 µM.

In turn, `NCc1ccc(F)c(NC(=O)c2cc(Cl)cc(NC(=O)OCc3ccccc3)c2)c1` [ASAP-0021403, NCc1ccc(F)c(NC(=O)c2cc(Cl)cc(NC(=O)OCc3ccccc3)c2)c1] showed a Ki (ZIKV NS2B-NS3 pKi) of 3.89 µM.

On to `O=C(Nc1cc(Cl)cc(C(=O)NC[C@H]2CNC3(CC3)CO2)c1)OCc1ccccc1` [ASAP-0021445, O=C(Nc1cc(Cl)cc(C(=O)NC[C@H]2CNC3(CC3)CO2)c1)OCc1ccccc1 ¦&1:13¦], for which the “ZIKV NS2B-NS3 pKi” value is below 4.05. The Ki (read-out: ZIKV NS2B-NS3 Ki) was above 89.3 µM.

Consider `O=C(Nc1cc(Cl)cc(C(=O)NC2([C@H]3CCNC3)CC2)c1)OCc1ccccc1` [ASAP-0021452, O=C(Nc1cc(Cl)cc(C(=O)NC2([C@H]3CCNC3)CC2)c1)OCc1ccccc1 ¦&1:13¦], for which the “ZIKV NS2B-NS3 pKi” value was below 4.05. The Ki (read-out: ZIKV NS2B-NS3 Ki) was above 89.3 µM.

In turn, `NC[C@]1(F)C[C@@H](NC(=O)c2cc(Cl)cc(NC(=O)OCc3ccccc3)c2)C1` [ASAP-0021480, NC[C@]1(F)C[C@@H](NC(=O)c2cc(Cl)cc(NC(=O)OCc3ccccc3)c2)C1] showed a Ki (ZIKV NS2B-NS3 Ki (uM)) of 61.6 µM.

For `C=CC[C@@]1(NC(=O)c2cc(Cl)cc(NC(=O)OCc3ccccc3)c2)CCNC1` [ASAP-0021490, C=CC[C@@]1(NC(=O)c2cc(Cl)cc(NC(=O)OCc3ccccc3)c2)CCNC1 ¦&1:3¦], the “ZIKV NS2B-NS3 pKi” value was below 4.05. Further, the Ki (read-out: ZIKV NS2B-NS3 Ki) is above 89.3 µM.

Take `O=C(Nc1cc(Cl)cc(C(=O)NC[C@@H]2CNCCC2(F)F)c1)OCc1ccccc1` [ASAP-0021511, O=C(Nc1cc(Cl)cc(C(=O)NC[C@@H]2CNCCC2(F)F)c1)OCc1ccccc1 ¦&1:13¦]: the “ZIKV NS2B-NS3 pKi” value is listed as below 4.05. Also, the Ki (read-out: ZIKV NS2B-NS3 Ki) was above 89.3 µM.

`O=C(Nc1cc(Cl)cc(C(=O)Nc2ccc3c(c2)CNCCO3)c1)OCc1ccccc1` [ASAP-0021552, O=C(Nc1cc(Cl)cc(C(=O)Nc2ccc3c(c2)CNCCO3)c1)OCc1ccccc1] yielded a Ki (ZIKV NS2B-NS3 Ki (uM)) of 6.9 µM.

Under “ZIKV NS2B-NS3 Ki (uM)”, `O=C(Nc1cc(Cl)cc(C(=O)Nc2nccn2C2CNC2)c1)OCc1ccccc1` [ASAP-0021559, O=C(Nc1cc(Cl)cc(C(=O)Nc2nccn2C2CNC2)c1)OCc1ccccc1] had a Ki above 89.3 µM.

Under “ZIKV NS2B-NS3 Ki (uM)”, `O=C(Nc1cc(Cl)cc(C(=O)Nc2ncc(C3CNC3)s2)c1)OCc1ccccc1` [ASAP-0021562, O=C(NC1=CC(Cl)=CC(C(=O)NC2=NC=C(C3CNC3)S2)=C1)OCC1=CC=CC=C1] yielded a Ki above 89.3 µM.

Regarding `O=C(Nc1cc(Cl)cc(C(=O)NC[C@@H]2CC3(CNC3)CO2)c1)OCc1ccccc1` [ASAP-0021589, O=C(Nc1cc(Cl)cc(C(=O)NC[C@@H]2CC3(CNC3)CO2)c1)OCc1ccccc1 ¦&1:13¦], the “ZIKV NS2B-NS3 pKi” value came to 4.38. Further, the Ki (read-out: ZIKV NS2B-NS3 Ki) worked out at 41.3 µM.

For the compound `O=C(Nc1cc(Cl)cc(C(=O)Nc2ccnc(OC3CNC3)c2)c1)OCc1ccccc1` [ASAP-0021594, O=C(Nc1cc(Cl)cc(C(=O)Nc2ccnc(OC3CNC3)c2)c1)OCc1ccccc1], the affinity (ZIKV NS2B-NS3 Ki (uM)), expressed as Ki, was 59.3 µM.

In the case of `NCC12CC(NC(=O)c3cc(Cl)cc(NC(=O)OCc4ccccc4)c3)(CCO1)C2` [ASAP-0021607, NCC12CC(NC(=O)c3cc(Cl)cc(NC(=O)OCc4ccccc4)c3)(CCO1)C2], the Ki (ZIKV NS2B-NS3 Ki (uM)) is above 89.3 µM.

`CNCc1cccc(NC(=O)c2cc(Cl)cc(NC(=O)OCc3ccccc3)c2)c1` [ASAP-0021616, CNCc1cccc(NC(=O)c2cc(Cl)cc(NC(=O)OCc3ccccc3)c2)c1] returned a Ki (ZIKV NS2B-NS3 Ki (uM)) of 17.6 µM.
